Read-outs that look alike come from different tables or passages of the source.
Experiments:
[1] = tested on: rat peripheral blood leukocytes; experiment: Rat chemokine-induced PBMC migration assay; format: cell-based; conditions: Table 3
fetal rat pituicytes = experiment: Rat pituicyte GH suppression assay; format: cell-based
Description: (§1) Two different assays for “classical” sstr2 functions were adopted: (1) cultured foetal rat pituitary cells secreted growth hormone which is inhibited by sstr2 agonists in a dose-dependent fashion and (2) selected glucose-sensitive sub-clones of the human Panc-1 cell line secrete insulin which is inhibited by sstr2 agonists in a dose-dependent fashion.
Methods: Cultures of fetal rat pituicytes were established exactly as previously described (Murray et al. (2004) J. Clin. Endocrinol. Metab. 89:3027-32) by enzymatic dispersion. After 48 hrs in low glucose DMEM plus 10% FCS, cells in 48 well plates (5×10^4 cells per well) were washed for 4 hrs in serum-free DMEM and then incubated with test agents at various concentrations for a further 24 hrs in serum-free DMEM. At the end of this period, the conditioned medium was harvested, any cell debris removed by centrifugation and assayed for GH using a commercially available ELISA (Linco; cat# EZRMGH-45K) in accordance with the manufacturer's instructions.
(§2) Results were reported as the mean±SD, expressed as the fold change from cells in the presence of vehicle only.

[2] = tested on: TNF-alpha production in response to bacterial endotoxin; experiment: Sub-lethal endotoxemia model, serum TNF-alpha after LPS; format: in vivo; conditions: mouse, serum 2 hours after LPS
Description: We selected the sub-lethal endotoxemia model in mouse, because this has been well characterised in our laboratory (see for example Fox et al. (2002) J. Med. Chem. 45:360-70; Fox et al. (2005) J. Med. Chem. 48:867-74). The extent of systemic inflammation in response to a single intraperitoneal injection of bacterial lipopolysaccharide (LPS) can be estimated by measuring serum TNF-alpha 2 hours post challenge.
Methods: Mice (CD1 strain; adult males; 6 per group) were treated with BSCI (in an appropriate vehicle) or with vehicle alone by an appropriate route. […] Simultaneously, one set of mice at each BSCI concentration received BIM 23627 at […] by sub-cutaneous injection (a treatment condition known to suppress classical sstr2-mediated signalling, such as GH release, in rats; Tulipano et al. (2002) 143:1218-24). […]
After, a further 2 hours, the animals were sacrificed by CO2 asphyxiation, and blood was drawn by cardiac puncture. Serum was prepared by conventional methods, and the level of TNF-alpha in serum was measured using an ELISA (R&D Systems; Murine Quantikine code# MTA00) performed in accordance with the manufacturer's instructions. […]

Panc-2H4 cells = experiment: Human Panc-2H4 insulin suppression assay; format: cell-based
Description: as §1
Glucose-sensitive sub-clones of the human Panc-1, a cell line derived from a pleiomorphic epithelioid carcinoma of the exocrine pancreas, were obtained essentially as described by Hamil et al. (2008) Biomed. Sci. Instrum. 44:441-6. Briefly, Panc-1 cells were subcultured in 24 well plates, and the medium was supplemented with an additional 5% glucose. […] The resulting sub-lines were then tested for glucose sensitivity by preparing wells of a 96-well plate (5×10^4 cells per well) which were then exposed to cultured medium containing a range of glucose concentrations (low glucose DMEM, DMEM, DMEM+1% glucose, DMEM+2.5% glucose and DMEM+5% glucose). After 24 hrs incubation, the conditioned medium was collected and assayed for insulin secretion by ELISA (Linco; cat# EZHI-14K) in accordance with the manufacturer's instructions.
Further 96 well plates were prepared using Panc-2H4 (5×10^4 cells per well) in DMEM. After 24 hrs, the medium was switched to DMEM+5% glucose containing various test agents at various concentrations (triplicate wells per condition). After a further 24 hrs, the conditioned medium was harvested and the concentration of insulin was determined by ELISA as described above.
as §2

[3] = Table 3, suppression compared to vehicle

(S)-3-(2′,2′-dimethyldodecanoyl)amino-caprolactam [BN83250]
Rat chemokine-induced PBMC migration assay Max effect [1]: 100% | Inhibition of GH release, in words (fetal rat pituicytes): inhibited GH release only at much higher concentrations | EC50 (fetal rat pituicytes; Table 3, read-out: Rat pituicyte GH suppression assay ED50): 320 nM | Rat pituicyte GH suppression assay Max effect (fetal rat pituicytes; [3]): 63% | Inhibition of TNF-alpha production in response to endotoxin, in words [2]: dramatically inhibited | EC50 (Panc-2H4 cells; Table 3, read-out: Human Panc-2H4 insulin suppression assay ED50): 1000 nM | Human Panc-2H4 insulin suppression assay Max effect (Panc-2H4 cells; [3]): 28% | Panc-2H4 insulin suppression assay (“classical” target) Max Effect (Panc-2H4 cells; Table 5): 28% | EC50 (Panc-2H4 cells; Table 5, read-out: Panc-2H4 insulin suppression assay (“classical” target) ED50): 1000 nM

CC(C)(C)C(=O)N[C@H]1CCCNC1=O [Valerolactam, (S)-3-(2′,2′-dimethylpropionoylamino)-tetrahydropyridin-2-one]
Emax ([1]; Rattus norvegicus, Leukocyte, read-out: Rat chemokine-induced PBMC migration assay Max effect): 100% | Inhibition of GH release, in words (fetal rat pituicytes): inhibited GH release only at much higher concentrations | Inhibition of TNF-alpha production in response to endotoxin, in words [2]: dramatically inhibited | EC50 (Panc-2H4 cells; Homo sapiens, Table 3, read-out: Human Panc-2H4 insulin suppression assay ED50): > 1000 nM

— patent US20120053076A1, “METHODS FOR IDENTIFICATION” (Cambridge Enterprise Limited, priority 2009, published 2012)
